Source: US10695322B2 (priority 2016, dated 2020)
Where two headings read alike, the source gives them in different places.

Columns and labels:
[1] = biological target: T1, LdtMt2 (Mycobacterium tuberculosis, UniProt I6Y9J2); assay: biochemical; set-up: species or system M. tuberculosis
[2] = biological target: T2, human DHP-1 (Homo sapiens, UniProt P16444); conditions: cited from earlier work
T2 sequence (P16444 17-385): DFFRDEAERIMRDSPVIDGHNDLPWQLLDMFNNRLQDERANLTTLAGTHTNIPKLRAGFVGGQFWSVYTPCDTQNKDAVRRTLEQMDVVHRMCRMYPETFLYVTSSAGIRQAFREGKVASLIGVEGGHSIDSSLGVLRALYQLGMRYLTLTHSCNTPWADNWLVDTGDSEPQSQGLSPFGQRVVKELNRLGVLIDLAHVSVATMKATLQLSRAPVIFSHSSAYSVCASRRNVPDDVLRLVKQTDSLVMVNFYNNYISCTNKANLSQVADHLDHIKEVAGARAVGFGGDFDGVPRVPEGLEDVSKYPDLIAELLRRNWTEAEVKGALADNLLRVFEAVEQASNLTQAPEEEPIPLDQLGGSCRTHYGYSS

[3] = tested on: M. tuberculosis; type: in vivo, BALB/c mice
[4] = biological target: T1, LdtMt2; type: binding, M. tuberculosis; conditions: UPLC-MS
[5] = tested on: M. tuberculosis; conditions: oral gavage; recent report; cited from earlier work
[6] = tested on: M. tuberculosis; conditions: mouse, in vivo; cited from earlier work
[7] = biological target: LdtMab2, wild-type (MAB_1530, orthologue of LdtMt2; fragment without putative transmembrane domain) (Mycobacteroides abscessus, UniProt B1MMQ4); assay: biochemical; type: binding, Mycobacterium abscessus; conditions: Figure 6; ITC, wt, protein 150 μM, ligand 2 mM, pH 8.0, 24° C.
Sequence of LdtMab2, wild-type (MAB_1530, orthologue of LdtMt2; fragment without putative transmembrane domain) (B1MMQ4 32-406): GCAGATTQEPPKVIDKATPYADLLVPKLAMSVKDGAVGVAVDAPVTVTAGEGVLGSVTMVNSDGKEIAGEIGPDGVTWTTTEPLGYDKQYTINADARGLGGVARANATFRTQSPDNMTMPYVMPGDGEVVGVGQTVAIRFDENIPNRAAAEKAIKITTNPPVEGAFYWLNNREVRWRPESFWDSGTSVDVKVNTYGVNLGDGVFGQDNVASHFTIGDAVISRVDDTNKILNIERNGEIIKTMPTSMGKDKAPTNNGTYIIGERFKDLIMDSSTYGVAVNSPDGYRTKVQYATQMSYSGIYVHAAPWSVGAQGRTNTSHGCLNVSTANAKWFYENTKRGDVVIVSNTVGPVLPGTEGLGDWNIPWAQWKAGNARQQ

[8] = biological target: LdtMab1, wild-type (MAB_3165c, orthologue of LdtMt1) (Mycobacteroides abscessus, UniProt B1MDC1); assay: biochemical; type: binding, Mycobacterium abscessus; conditions: Figure 6; ITC, wt, protein 150 μM, ligand 2 mM, pH 8.0, 24° C.
Sequence of LdtMab1, wild-type (MAB_3165c, orthologue of LdtMt1) (B1MDC1 21-248): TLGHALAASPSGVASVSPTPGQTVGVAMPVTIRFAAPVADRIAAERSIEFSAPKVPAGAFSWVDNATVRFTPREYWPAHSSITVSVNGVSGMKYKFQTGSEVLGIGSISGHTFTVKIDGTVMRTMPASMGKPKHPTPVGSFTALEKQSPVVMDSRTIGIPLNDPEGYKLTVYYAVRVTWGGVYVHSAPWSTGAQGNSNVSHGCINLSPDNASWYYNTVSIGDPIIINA

[9] = 10 μM LdtMt2, MES pH 6.5, 10° C.

T1 sequence (I6Y9J2 56-408 limits assumed): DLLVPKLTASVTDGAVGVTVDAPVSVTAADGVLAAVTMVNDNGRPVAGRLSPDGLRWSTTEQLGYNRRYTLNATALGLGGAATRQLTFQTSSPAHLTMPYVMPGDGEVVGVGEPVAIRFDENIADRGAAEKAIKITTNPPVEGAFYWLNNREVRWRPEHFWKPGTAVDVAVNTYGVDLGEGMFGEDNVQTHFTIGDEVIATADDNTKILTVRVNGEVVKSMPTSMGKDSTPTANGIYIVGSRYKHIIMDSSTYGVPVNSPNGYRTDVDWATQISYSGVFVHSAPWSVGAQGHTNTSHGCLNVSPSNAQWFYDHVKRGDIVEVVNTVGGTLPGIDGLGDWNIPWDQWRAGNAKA

C[C@@H](O)[C@H]1C(=O)N2C(C(=O)[O-])=C(SC3Cn4cnc[n+]4C3)[C@H](C)[C@H]12 (stereo partly shown) [biapenem]
Kapp [1, 9]: 15.3 ± 2.5 µM | kinact ([1]; 10 μM LdtMt2, MES pH 6.5, 10° C., read-out: kinact (converted)): 0.06 s⁻¹ | kinact/KI ([1]; read-out: kinact/Kapp ratio): 3830 M⁻¹ s⁻¹ | metabolism by human DHP-1 [2]: not readily metabolized | gross pathology of lungs (tuberculous lesions) ([3]; mouse, in vivo): no tuberculous lesions | M. tuberculosis burden in the lungs ([3]; three weeks of treatment): no less effective than rifampicin | bactericidal activity in vivo ([3]; three weeks of treatment): lacked bactericidal activity | mass of stable adduct with wild-type LdtMt2 [4]: +138 Da

Cc1oc(=O)oc1COC(=O)C1=C([C@H]2CCCO2)S[C@@H]2[C@@H]([C@@H](C)O)C(=O)N12 [faropenem medoxomil]
M. tuberculosis burden in the lungs [5]: ineffective

C[C@@H](O)[C@H]1C(=O)N2C(C(=O)O)=C(S[C@@H]3CN[C@H](C(=O)N(C)C)C3)[C@H](C)[C@H]12 [meropenem]
activity in macrophages and mice infected with M. tuberculosis [6]: limited activity

C[C@@H](O)[C@H]1C(=O)N2C(C(=O)O)=C(SC3CN(C4=NCCS4)C3)[C@H](C)[C@H]12 [tebipenem]
Kd [7]: 6.1 µM | Kd [8]: 0.82 µM | Kapp [1, 9]: 38.4 ± 9.7 µM
